For two compounds, Ki results are on record in ChEMBL document CHEMBL1125726 (J Med Chem, 1991).

Assay [1] has as its target Dopamine receptor.
Description: Compound was evaluated for its ability to inhibit Striatal Dopamine Receptor in rat brain through radioreceptor assay carried out with agonist ligand.
Assay [2] deals with D(1A) dopamine receptor (Rattus norvegicus, UniProt P18901). Kind of assay: biochemical.
Description: Compound was evaluated for its ability to inhibit dopamine receptor D1 in rat striatum using [3H]SCH-23390
In assay [3] the target is D(2) dopamine receptor (Rattus norvegicus, UniProt P61169). Kind of assay: biochemical.
Description: Compound was evaluated for its ability to inhibit dopamine receptor D2 in rat striatum using [3H]-spiperone

Molecules are shown by their SMILES.

Sequence of D(1A) dopamine receptor (P18901 whole entry): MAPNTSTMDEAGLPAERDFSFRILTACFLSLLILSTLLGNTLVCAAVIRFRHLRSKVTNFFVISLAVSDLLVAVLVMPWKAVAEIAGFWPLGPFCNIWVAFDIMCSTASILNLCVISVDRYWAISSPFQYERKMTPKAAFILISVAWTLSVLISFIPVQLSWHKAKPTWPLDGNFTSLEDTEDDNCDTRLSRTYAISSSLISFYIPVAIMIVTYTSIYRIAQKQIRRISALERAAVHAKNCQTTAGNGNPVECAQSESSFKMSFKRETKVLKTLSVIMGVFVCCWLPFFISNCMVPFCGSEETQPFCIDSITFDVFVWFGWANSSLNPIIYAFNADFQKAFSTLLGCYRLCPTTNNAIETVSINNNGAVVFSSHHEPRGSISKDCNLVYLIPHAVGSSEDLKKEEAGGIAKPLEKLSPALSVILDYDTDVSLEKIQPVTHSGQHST
Sequence of D(2) dopamine receptor (P61169 whole entry): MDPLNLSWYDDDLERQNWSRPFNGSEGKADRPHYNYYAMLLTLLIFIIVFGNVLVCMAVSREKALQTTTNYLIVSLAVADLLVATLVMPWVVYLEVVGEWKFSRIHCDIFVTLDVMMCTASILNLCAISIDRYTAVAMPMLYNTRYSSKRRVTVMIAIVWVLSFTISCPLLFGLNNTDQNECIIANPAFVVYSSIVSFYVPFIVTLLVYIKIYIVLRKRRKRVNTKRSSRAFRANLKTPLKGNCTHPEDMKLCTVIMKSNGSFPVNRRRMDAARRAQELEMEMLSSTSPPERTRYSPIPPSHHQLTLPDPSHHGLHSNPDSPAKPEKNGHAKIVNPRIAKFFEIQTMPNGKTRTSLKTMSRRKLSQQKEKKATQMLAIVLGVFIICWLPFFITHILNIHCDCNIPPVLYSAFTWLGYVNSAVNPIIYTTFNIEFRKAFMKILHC

The term Ki denotes a measure of affinity in units of concentration, obtained from inhibition or displacement. Low values mean tighter binding, high ones weaker binding. Regarding `C=CCN1CCc2cccc3c2[C@H]1Cc1cccc(O)c1-3`, the Ki in assay [1] amounted to 0.034 nM; in assay [2], 452 nM; in assay [3], 2 nM.
Turning to `C=CCN1CCc2cccc3c2[C@@H]1Cc1cccc(O)c1-3`, the Ki in assay [1] is 1595 nM; in assay [2], more than 10000 nM; in assay [3], 155 nM.
